Assay results: ChEMBL document CHEMBL5046271, “Design, Synthesis, and Biological Evaluation of 2-Formyl Tetrahydronaphthyridine Urea Derivatives as New Selective Covalently Reversible FGFR4 Inhibitors” (J Med Chem, 2022)
pIC50, pKd: −log10 of the molar value. The source made the active and inactive calls. The rule behind the calls is not given here.

Key:
[1] = Toxicity in mouse assessed as induction of weight loss at 30 mg/kg, po BID administered for 12 days (reference value: < 5 %); format: organism-based; settings: in vivo, 288 h, time 12 day
[2] = tested on: Hep 3B2; assay: Antitumor activity against human Hep 3B2.1-7 cells xenografted in mouse assessed as tumor growth inhibitions at 30 mg/kg, po BID administered for 12 days; format: functional; settings: Hep3B, 288 h, time 12 day, read-out: TGI
[3] = Cmax in Sprague-Dawley rat at 25 mg/kg, po incubation upto 24 hrs by LC-MS/MS analysis; format: ADME, organism-based; parameters: route oral, dose 25 mg/kg, time <=24; settings: in vivo
[4] = target: Receptor-type tyrosine-protein kinase FLT3 (Homo sapiens) (UniProt P36888); assay: Inhibition of human FLT3 expressed in bacterial expression system at 1000 nM by KINOMEscan assay relative to control
[5] = tested on: MDA-MB-453; assay: Cytotoxicity against human MDA-MB-453 cells harboring FGF19/FGFR4 assessed as inhibition of cell growth
[6] = tested on: NCI-H1581; assay: Inhibition of colony formation in human NCI-H1581 cells incubated for 10 days by crystal violet staining based assay; format: functional, cell-based; settings: time 10.0 day
[7] = Toxicity in mouse assessed as mortality at 30 mg/kg, po BID administered for 12 days (reference value: < 5 %); format: organism-based; settings: in vivo, 288 h, time 12 day
[8] = tested on: Hep 3B2; assay: Inhibition of colony formation in human Hep 3B2.1-7 cells incubated for 10 days by crystal violet staining based assay; format: functional, cell-based; settings: time 10.0 day
[9] = Half life in Sprague- Dawley rat at 5 mg/kg, iv incubation upto 24 hrs by LC-MS/MS analysis; format: ADME, organism-based; settings: in vivo
[10] = target: T1, Fibroblast growth factor receptor 3 (Homo sapiens, UniProt P22607); assay: Inhibition of FGFR3 (unknown origin) using Tyr 04 peptide substrate measured after 2 hrs by FRET assay
[11] = target: T2, Fibroblast growth factor receptor 4 (Homo sapiens, UniProt P22455); assay: Inhibition of FGFR4 (unknown origin) using Tyr 04 peptide substrate measured after 2 hrs by FRET assay
[12] = AUC(0 to t) inSprague- Dawley rat at 25 mg/kg, po incubation upto 24 hrs by LC-MS/MS analysis; format: ADME, organism-based; parameters: route oral, dose 25 mg/kg, time <=24; settings: Sprague-Dawley, in vivo
[13] = tested on: Huh-7; assay: Cytotoxicity against human Huh-7 cells harboring FGF19/FGFR4 assessed as inhibition of cell growth
[14] = tested on: BaF3; assay: Inhibition of FGFR4 expressed in mouse BaF3-ETV6-FGFR4 cells assessed as inhibition of ERK phosphorylation by Western blot analysis; format: cell-based; settings: dose 3.7-100 nM
[15] = target: Phosphatidylinositol 4-kinase alpha (Homo sapiens) (UniProt P42356); assay: Inhibition of human PIK4 at 1000 nM by KINOMEscan assay relative to control
[16] = target: T3, Fibroblast growth factor receptor 1 (Homo sapiens, UniProt P11362); assay: Inhibition of FGFR1 (unknown origin) using Tyr 04 peptide substrate measured after 2 hrs by FRET assay
[17] = target: MAP kinase-activated protein kinase 2 (Homo sapiens) (UniProt P49137); assay: Inhibition of human MAPKAPK2 expressed in bacterial expression system at 1000 nM by KINOMEscan assay relative to control
[18] = target: MAP kinase-activated protein kinase 3 (Homo sapiens) (UniProt Q16644); assay: Inhibition of human MAPKAPK3 expressed in bacterial expression system at 1000 nM by KINOMEscan assay relative to control
[19] = tested on: BaF3; assay: Inhibition of FGFR4 expressed in mouse BaF3-ETV6-FGFR4 cells assessed as inhibition of FRS2alpha phosphorylation by Western blot analysis; format: cell-based; settings: dose 3.7-100 nM
[20] = tested on: NCI-H1581; assay: Antiproliferative activity in human NCI-H1581 cells assessed as reduction of cell number measured after 72 hrs by CCK8 assay; format: functional, cell-based
[21] = target: Platelet-derived growth factor receptor alpha (Homo sapiens) (UniProt P16234); assay: Inhibition of human PDGFRA expressed in mammalian expression system at 1000 nM by KINOMEscan assay relative to control
[22] = target: T2, Fibroblast growth factor receptor 4; assay: Binding affinity to FGFR4 (unknown origin) assessed as dissociation constant by competition binding assay
[23] = tested on: NCI-H1581; assay: Cytotoxicity against human NCI-H1581 cells harboring FGF19/FGFR4 assessed as inhibition of cell growth
[24] = AUC(0 to t) in Sprague-Dawley rat at 5 mg/kg, iv incubation upto 24 hrs by LC-MS/MS analysis; format: ADME, organism-based; parameters: route intravenous, dose 5 mg/kg, time <=24; settings: in vivo
[25] = Half life in Sprague- Dawley rat at 25 mg/kg, po incubation upto 24 hrs by LC-MS/MS analysis; format: ADME, organism-based; settings: in vivo
[26] = tested on: BaF3; assay: Inhibition of FGFR4 expressed in mouse BaF3-ETV6-FGFR4 cells assessed as inhibition of PLCgamma1 phosphorylation by Western blot analysis; format: cell-based; settings: dose 3.7-100 nM
[27] = target: T1, Fibroblast growth factor receptor 3; assay: Inhibition of human FGFR3 expressed in bacterial expression system at 1000 nM by KINOMEscan assay relative to control
[28] = tested on: Hep 3B2; assay: Antiproliferative activity in human Hep 3B2.1-7 cells assessed as reduction of cell number measured after 72 hrs by CCK8 assay; format: functional, cell-based
[29] = target: Fibroblast growth factor receptor 2 (Homo sapiens, UniProt P21802); assay: Inhibition of FGFR2 (unknown origin) using Tyr 04 peptide substrate measured after 2 hrs by FRET assay
[30] = target: T4, Dual specificity protein kinase TTK (Homo sapiens) (UniProt P33981); assay: Inhibition of human TTK at 1000 nM by KINOMEscan assay relative to control
T4 sequence (whole entry): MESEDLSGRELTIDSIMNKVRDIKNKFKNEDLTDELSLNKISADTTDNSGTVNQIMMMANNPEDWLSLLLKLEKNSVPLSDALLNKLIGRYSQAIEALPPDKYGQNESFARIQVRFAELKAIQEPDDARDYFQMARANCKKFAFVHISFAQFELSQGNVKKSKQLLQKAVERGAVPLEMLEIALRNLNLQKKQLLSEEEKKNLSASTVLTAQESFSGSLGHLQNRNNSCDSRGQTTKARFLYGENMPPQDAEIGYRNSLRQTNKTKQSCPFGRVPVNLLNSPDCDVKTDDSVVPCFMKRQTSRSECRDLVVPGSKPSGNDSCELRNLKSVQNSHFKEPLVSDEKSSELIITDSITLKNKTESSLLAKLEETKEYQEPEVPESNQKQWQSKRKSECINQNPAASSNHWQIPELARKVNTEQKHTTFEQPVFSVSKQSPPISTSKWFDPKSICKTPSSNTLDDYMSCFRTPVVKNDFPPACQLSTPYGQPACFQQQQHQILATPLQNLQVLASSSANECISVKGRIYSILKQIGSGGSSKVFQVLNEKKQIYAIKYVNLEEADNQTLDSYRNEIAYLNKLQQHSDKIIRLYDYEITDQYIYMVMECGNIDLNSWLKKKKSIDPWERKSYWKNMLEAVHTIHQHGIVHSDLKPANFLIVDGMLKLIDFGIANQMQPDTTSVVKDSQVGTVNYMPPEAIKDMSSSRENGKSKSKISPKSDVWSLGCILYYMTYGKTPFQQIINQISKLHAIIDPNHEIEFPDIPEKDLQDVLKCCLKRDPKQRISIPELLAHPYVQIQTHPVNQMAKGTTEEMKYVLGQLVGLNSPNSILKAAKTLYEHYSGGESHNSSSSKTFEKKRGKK

[31] = target: T3, Fibroblast growth factor receptor 1; assay: Inhibition of human FGFR1 expressed in bacterial expression system at 1000 nM by KINOMEscan assay relative to control
Target sequence in this assay (P11362 22-822 limits assumed): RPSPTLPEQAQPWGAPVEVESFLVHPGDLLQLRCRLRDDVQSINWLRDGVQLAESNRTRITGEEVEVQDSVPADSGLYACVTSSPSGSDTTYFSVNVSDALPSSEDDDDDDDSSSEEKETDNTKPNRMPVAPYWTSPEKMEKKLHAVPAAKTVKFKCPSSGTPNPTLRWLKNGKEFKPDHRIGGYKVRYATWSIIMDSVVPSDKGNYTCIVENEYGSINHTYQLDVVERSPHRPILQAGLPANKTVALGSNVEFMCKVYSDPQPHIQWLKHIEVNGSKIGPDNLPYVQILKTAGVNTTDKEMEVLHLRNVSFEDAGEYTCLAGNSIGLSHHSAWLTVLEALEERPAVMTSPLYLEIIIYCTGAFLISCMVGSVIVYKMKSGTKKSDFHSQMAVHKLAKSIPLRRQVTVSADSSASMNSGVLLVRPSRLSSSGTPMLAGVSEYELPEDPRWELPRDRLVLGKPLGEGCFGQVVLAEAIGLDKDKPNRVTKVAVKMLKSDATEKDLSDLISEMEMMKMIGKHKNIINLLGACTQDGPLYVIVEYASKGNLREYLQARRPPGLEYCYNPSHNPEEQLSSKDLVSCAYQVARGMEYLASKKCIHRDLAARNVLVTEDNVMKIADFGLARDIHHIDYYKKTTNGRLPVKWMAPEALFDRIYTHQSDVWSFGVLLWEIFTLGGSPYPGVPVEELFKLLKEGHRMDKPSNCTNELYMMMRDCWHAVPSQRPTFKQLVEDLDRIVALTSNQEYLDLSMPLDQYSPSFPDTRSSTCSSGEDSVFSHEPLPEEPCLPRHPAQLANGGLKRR

[32] = Oral bioavailability in Sprague- Dawley rat at 25 mg/kg incubation upto 24 hrs by LC-MS/MS analysis; format: ADME, organism-based; settings: in vivo
[33] = tested on: Fibroblast growth factor receptor 2 (Homo sapiens), P21802 [N549H]; assay: Inhibition of human FGFR2 N549H mutant expressed in bacterial expression system at 1000 nM by KINOMEscan assay relative to control
[34] = target: Proto-oncogene tyrosine-protein kinase receptor Ret (Homo sapiens) (UniProt P07949); assay: Inhibition of human RET expressed in bacterial expression system at 1000 nM by KINOMEscan assay relative to control
[35] = tested on: Hep 3B2; assay: Cytotoxicity against human Hep 3B2.1-7 cells harboring FGF19/FGFR4 assessed as inhibition of cell growth; settings: Hep3B
[36] = Clearance in Sprague- Dawley rat at 5 mg/kg, iv incubation upto 24 hrs by LC-MS/MS analysis; format: ADME, organism-based; settings: in vivo
[37] = Cmax in Sprague-Dawley rat at 5 mg/kg, iv incubation upto 24 hrs by LC-MS/MS analysis; format: ADME, organism-based; parameters: route intravenous, dose 5 mg/kg, time <=24; settings: in vivo
[38] = target: Platelet-derived growth factor receptor beta (Homo sapiens) (UniProt P09619); assay: Inhibition of human PDGFRB expressed in bacterial expression system at 1000 nM by KINOMEscan assay relative to control
[39] = target: Transient receptor potential cation channel subfamily M member 7 (Homo sapiens) (UniProt Q96QT4); assay: Inhibition of human CHAK1 at 1000 nM by KINOMEscan assay relative to control

T2 sequence (P22455 whole entry): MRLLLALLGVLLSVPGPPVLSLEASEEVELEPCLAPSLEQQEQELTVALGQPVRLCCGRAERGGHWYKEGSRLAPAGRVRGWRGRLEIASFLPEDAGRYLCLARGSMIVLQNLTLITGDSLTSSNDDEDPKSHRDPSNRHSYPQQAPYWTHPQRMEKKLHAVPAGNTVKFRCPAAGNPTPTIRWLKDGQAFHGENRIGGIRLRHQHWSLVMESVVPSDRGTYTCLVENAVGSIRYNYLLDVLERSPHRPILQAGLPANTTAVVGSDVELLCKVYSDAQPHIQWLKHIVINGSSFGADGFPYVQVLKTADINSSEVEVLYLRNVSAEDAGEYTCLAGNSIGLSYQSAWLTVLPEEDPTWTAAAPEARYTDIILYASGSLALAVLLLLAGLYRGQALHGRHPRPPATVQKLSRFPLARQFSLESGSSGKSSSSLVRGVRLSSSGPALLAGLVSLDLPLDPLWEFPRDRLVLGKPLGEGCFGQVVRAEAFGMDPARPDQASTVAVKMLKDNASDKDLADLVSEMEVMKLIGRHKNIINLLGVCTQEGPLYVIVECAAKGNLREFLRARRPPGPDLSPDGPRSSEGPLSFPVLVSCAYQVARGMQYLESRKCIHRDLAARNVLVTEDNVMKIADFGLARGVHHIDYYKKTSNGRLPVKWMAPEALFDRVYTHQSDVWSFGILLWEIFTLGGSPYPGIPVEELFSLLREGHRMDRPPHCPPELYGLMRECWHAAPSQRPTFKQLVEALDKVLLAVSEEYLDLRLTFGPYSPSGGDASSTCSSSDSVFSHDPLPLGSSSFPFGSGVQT
Sequence of Fibroblast growth factor receptor 2 (P21802 whole entry): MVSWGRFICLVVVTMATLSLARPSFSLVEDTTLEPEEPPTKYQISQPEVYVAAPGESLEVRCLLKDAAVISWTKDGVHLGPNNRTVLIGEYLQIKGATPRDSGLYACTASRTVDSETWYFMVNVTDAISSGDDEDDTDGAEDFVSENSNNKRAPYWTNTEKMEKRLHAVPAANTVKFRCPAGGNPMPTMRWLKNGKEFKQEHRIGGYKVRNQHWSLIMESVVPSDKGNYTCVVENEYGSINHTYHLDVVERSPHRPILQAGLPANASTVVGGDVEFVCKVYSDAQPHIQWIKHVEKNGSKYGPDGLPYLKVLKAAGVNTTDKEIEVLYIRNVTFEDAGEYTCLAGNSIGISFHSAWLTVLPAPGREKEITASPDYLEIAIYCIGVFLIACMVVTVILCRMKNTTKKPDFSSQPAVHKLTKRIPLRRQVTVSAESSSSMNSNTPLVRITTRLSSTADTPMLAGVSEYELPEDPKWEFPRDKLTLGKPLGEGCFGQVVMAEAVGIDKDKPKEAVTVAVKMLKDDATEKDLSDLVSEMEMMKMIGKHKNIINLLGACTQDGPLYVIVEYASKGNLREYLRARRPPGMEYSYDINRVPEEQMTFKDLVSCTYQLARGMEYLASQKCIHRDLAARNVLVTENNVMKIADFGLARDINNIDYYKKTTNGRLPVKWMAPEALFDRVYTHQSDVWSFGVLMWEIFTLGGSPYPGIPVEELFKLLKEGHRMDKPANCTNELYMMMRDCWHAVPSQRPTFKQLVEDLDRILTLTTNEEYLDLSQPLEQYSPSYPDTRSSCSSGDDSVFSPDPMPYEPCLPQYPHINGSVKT
Sequence of Proto-oncogene tyrosine-protein kinase receptor Ret (Homo sapiens) (P07949 whole entry): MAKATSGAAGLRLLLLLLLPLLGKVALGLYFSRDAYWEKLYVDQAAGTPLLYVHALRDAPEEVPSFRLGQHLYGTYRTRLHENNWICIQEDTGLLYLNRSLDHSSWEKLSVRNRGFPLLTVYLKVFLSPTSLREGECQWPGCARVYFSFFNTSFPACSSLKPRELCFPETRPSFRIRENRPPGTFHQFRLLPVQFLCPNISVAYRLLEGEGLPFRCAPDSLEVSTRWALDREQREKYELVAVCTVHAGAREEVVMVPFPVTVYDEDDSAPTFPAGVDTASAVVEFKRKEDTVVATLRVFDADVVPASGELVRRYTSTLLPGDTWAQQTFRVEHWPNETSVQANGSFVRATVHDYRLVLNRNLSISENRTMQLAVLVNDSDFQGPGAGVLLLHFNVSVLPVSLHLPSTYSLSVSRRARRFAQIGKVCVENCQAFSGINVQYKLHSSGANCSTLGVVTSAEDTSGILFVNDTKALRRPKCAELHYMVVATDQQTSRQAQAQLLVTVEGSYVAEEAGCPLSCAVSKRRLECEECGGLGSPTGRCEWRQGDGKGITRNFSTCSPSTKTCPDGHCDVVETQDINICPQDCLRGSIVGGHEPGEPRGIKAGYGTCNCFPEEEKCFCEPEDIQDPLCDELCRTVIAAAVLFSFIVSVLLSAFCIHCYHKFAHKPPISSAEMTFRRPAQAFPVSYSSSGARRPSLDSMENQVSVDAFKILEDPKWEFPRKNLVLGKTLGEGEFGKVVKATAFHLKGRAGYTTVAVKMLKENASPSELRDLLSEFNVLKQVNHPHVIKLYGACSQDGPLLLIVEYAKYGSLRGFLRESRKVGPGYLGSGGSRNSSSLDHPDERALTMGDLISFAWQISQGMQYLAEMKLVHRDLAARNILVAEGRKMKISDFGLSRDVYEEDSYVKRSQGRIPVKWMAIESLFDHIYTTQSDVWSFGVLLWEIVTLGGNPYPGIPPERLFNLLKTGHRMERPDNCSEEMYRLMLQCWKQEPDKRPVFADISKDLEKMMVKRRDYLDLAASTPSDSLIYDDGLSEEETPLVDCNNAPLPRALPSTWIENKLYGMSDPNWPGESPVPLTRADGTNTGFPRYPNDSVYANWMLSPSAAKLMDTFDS
Sequence of Platelet-derived growth factor receptor alpha (Homo sapiens) (P16234 whole entry): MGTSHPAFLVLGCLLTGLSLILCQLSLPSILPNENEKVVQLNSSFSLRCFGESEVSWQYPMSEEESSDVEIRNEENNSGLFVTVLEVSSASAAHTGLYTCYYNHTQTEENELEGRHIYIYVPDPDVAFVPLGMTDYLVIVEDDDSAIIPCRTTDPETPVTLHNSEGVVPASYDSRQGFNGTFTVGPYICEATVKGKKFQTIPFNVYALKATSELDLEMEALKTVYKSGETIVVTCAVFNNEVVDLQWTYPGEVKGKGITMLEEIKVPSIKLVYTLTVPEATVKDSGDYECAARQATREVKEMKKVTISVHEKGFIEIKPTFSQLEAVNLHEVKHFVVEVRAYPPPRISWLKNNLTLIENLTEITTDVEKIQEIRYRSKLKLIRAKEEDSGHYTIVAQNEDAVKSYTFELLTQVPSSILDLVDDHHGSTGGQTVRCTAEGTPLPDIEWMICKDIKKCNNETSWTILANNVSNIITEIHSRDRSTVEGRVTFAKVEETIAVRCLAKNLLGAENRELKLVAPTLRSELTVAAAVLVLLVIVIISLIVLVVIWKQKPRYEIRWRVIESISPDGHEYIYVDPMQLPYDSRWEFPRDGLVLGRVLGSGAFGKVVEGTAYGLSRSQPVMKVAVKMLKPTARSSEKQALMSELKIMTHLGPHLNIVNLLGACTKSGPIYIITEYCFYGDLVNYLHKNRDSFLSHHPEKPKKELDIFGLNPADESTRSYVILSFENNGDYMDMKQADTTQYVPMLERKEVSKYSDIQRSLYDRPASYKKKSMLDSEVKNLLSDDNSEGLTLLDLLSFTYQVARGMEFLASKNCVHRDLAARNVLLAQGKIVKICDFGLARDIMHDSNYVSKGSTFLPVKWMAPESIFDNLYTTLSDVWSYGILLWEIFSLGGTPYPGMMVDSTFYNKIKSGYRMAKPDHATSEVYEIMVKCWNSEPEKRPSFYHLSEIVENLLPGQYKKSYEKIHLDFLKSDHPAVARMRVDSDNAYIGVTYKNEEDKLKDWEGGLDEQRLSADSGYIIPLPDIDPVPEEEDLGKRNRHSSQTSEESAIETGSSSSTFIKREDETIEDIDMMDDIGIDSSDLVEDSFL
Sequence of Fibroblast growth factor receptor 2 (Homo sapiens), P21802 [N549H] (P21802 whole entry N549H): as the sequence (P21802 whole entry) above, with N549H counted along it
Sequence of MAP kinase-activated protein kinase 2 (Homo sapiens) (P49137 whole entry, looked up): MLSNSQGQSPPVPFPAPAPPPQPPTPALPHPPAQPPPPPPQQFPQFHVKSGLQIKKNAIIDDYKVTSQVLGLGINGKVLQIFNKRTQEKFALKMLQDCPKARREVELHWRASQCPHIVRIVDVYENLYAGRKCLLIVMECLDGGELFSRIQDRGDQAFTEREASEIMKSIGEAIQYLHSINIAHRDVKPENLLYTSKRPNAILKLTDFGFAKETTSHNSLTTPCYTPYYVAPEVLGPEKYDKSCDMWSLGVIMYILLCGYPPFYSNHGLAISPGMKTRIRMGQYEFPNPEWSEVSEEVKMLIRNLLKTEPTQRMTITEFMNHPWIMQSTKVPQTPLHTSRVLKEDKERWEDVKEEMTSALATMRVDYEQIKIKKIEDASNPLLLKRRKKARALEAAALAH

Structure (SMILES): CC(C)Oc1cc(NC(=O)N2CCCc3cc(CN4CCN(C)CC4=O)c(C=O)nc32)ncc1C#Cc1cccnc1
- Activity [1]: Non-Toxic
- inhibition in vivo at 30 mg/kg [2]: 95.2%
- Cmax [3]: 8560 ng/mL
- inhibition [4]: 10%
- pIC50 [5]: 6.85
- Activity [6]: Active
- Activity [7]: Non-Toxic
- Activity [8]: Active
- half-life [9]: 0.89 h
- pIC50 [10]: < 5.00
- pIC50 [11]: 8.27
- AUC(0-t) at 24 h [12]: 39000 ng·h/mL
- pIC50 [13]: 8.62
- inhibition [14]: Dose-Dependent Effect
- inhibition [15]: 6%
- pIC50 [16]: < 5.00
- inhibition [17]: -3%
- inhibition [18]: 3%
- inhibition [19]: Dose-Dependent Effect
- Activity [20]: Active
- inhibition [21]: 5%
- pKd [22]: 8.21
- pIC50 [23]: < 5.52
- AUC(0-t) at 24 h [24]: 15300 ng·h/mL
- half-life [25]: 3.06 h
- inhibition [26]: Dose-Dependent Effect
- inhibition [27]: 10%
- Activity [28]: Active
- pIC50 [29]: < 5.00
- inhibition [30]: 10%
- inhibition [31]: -5%
- bioavailability [32]: 51%
- inhibition [33]: 1%
- inhibition [34]: -2%
- pIC50 [35]: 6.98
- clearance [36]: 6.15 mL/min/kg
- Cmax [37]: 11100 ng/mL
- inhibition [38]: 5%
- inhibition [39]: 8%
